Data from patent US20250215013A1, “SUBSTITUTED TRICYCLIC COMPOUNDS AS PARP INHIBITORS AND THE USE THEREOF” (IMPACT THERAPEUTICS (SHANGHAI), INC., priority 2022, published 2025).

System: MDA-MB-436 cells
Assay: Growth inhibition assay against BRCA mutant human breast cancer MDA-MB-436 cell line (CCK-8)
Type: cell-based
Settings: Homo sapiens, MDA-MB-436, […], proliferation of MDA-MB-436 cells, 7 days

| IC50 | Compound |
| --- | --- |
| 11.5 nM | CNC(=O)c1ccc(N2CCN(Cc3ccc4c([nH]c(=O)c5ccoc54)c3F)CC2)cn1 [Example 150, 6-fluoro-7-((4-(6-(methylcarbamoyl)pyridin-3-yl)piperazin-1-yl)methyl)furo[3,2-c]quinolin-4(5H)-one] |
| 7.69 nM | CNC(=O)c1ccc(N2CCN(Cc3ccc4c(c3)[nH]c(=O)c3ncsc34)CC2)c(C)n1 [Example 4, 7-((4-(2-methyl-6-(methylcarbamoyl)pyridin-3-yl)piperazin-1-yl)methyl)thiazolo[4,5-c]quinolin-4(5H)-one] |
| 9.79 nM | CNC(=O)c1ccc(N2CCN(Cc3cc4[nH]c(=O)c5c(C)noc5c4cc3F)CC2)c(F)n1 [Example 97, 7-((4-(2-fluoro-6-(methylcarbamoyl)pyridin-3-yl)piperazin-1-yl)methyl)-3-methyl-8-fluoroisoxazolo[4,5-c]quinolin-4(5H)-one] |
| 7.5 nM | CNC(=O)c1ccc(N2CCN(Cc3ccc4c([nH]c(=O)c5oc(C)cc54)c3F)CC2)c(F)n1 [Example 116, 7-((4-(2-fluoro-6-(methylcarbamoyl)pyridin-3-yl)piperazin-1-yl)methyl)-6-fluoro-2-methylfuro[2,3-c]quinolin-4(5H)-one] |
| 28.9 nM | CNC(=O)c1ccc(N2CCN(Cc3ccc4c(c3)[nH]c(=O)c3n[nH]cc34)CC2)c(C)n1 [Example 70, 7-((4-(2-methyl-6-(methylcarbamoyl)pyridin-3-yl)piperazin-1-yl)methyl)-2,5-dihydro-4H-pyrazolo[3,4-c]quinolin-4-one] |
| 36.7 nM | CNC(=O)c1ccc(N2CCN(Cc3ccc4c([nH]c(=O)c5c(C)noc54)c3F)CC2)c(F)n1 [Example 96, 7-((4-(2-fluoro-6-(methylcarbamoyl)pyridin-3-yl)piperazin-1-yl)methyl)-3-methyl-6-fluoroisoxazolo[4,5-c]quinolin-4(5H)-one] |
| 23 nM | CNC(=O)c1ccc(N2CCN(Cc3ccc4c([nH]c(=O)c5occc54)c3F)CC2)c(C(F)F)n1 [Example 101, 7-((4-(2-(difluoromethyl)-6-(methylcarbamoyl)pyridin-3-yl)piperazin-1-yl)methyl)-6-fluorofuro[2,3-c]quinolin-4(5H)-one] |
| > 100 nM | CNC(=O)c1ccc(N2CCN(Cc3ccc4c([nH]c(=O)c5ncn(C)c54)c3F)CC2)c(F)n1 [Example 100, 7-((4-(2-fluoro-6-(methylcarbamoyl)pyridin-3-yl)piperazin-1-yl)methyl)-6-fluoro-1-methyl-1,5-dihydro-4H-imidazo[4,5-c]quinolin-4-one] |
| 18.5 nM | CNC(=O)c1ccc(N2CCN(Cc3cc4[nH]c(=O)c5c(C)cnn5c4cc3F)CC2)c(Cl)n1 [Example 170, 8-fluoro-7-((4-(2-chloro-6-(methylcarbamoyl)pyridin-3-yl)piperazin-1-yl)methyl)-3-methylpyrazolo[1,5-a]quinoxalin-4(5H)-one] |
| 71.3 nM | Cc1cnn2c1c(=O)[nH]c1c(F)c(CN3CCN(c4ccc(C#N)nc4F)CC3)ccc12 [Example 164, 6-fluoro-7-((4-(2-fluoro-6-cyanopyridin-3-yl)piperazin-1-yl)methyl)-3-methylpyrazolo[1,5-a]quinoxalin-4(5H)-one] |
| > 100 nM | CNC(=O)c1ccc(N2CCN(Cc3cc4[nH]c(=O)c5ocnc5c4cc3F)CC2)c(F)n1 [Example 94, 7-((4-(2-fluoro-6-(methylcarbamoyl)pyridin-3-yl)piperazin-1-yl)methyl)-8-fluorooxazolo[5,4-c]quinolin-4(5H)-one] |
| > 100 nM | CNC(=O)c1ccc(N[C@@H]2CCN(Cc3ccc4c([nH]c(=O)c5c(C)cnn54)c3F)C2)c(F)n1 [Example 135, (R)-6-fluoro-7-((3-((2-fluoro-6-(methylcarbamoyl)pyridin-3-yl)amino)pyrrolidin-1-yl)methyl)-3-methylpyrazolo[1,5-a]quinoxalin-4(5H)-one] |
| 42.3 nM | CNc1nccc2cc(N3CCN(Cc4ccc5c([nH]c(=O)c6c(C)cnn65)c4F)CC3)cnc12 [Example 157, 6-fluoro-3-methyl-7-((4-(8-(methylamino)-1,7-naphthyridin-3-yl)piperazin-1-yl)methyl)pyrazolo[1,5-a]quinoxalin-4(5H)-one] |
| > 100 nM | CNC(=O)c1ccc(N2CCN(Cc3ccc4c([nH]c(=O)c5c(C)cnn54)c3Cl)CC2)c(Cl)n1 [Example 176, 6-chloro-7-((4-(2-chloro-6-(methylcarbamoyl)pyridin-3-yl)piperazin-1-yl)methyl)-3-methylpyrazolo[1,5-a]quinoxalin-4(5H)-one] |
| 20.1 nM | CNC(=O)c1ccc(N2CCN(Cc3ccc4c([nH]c(=O)c5c(C)cnn54)c3F)CC2)c(C)c1 [Example 162, 6-fluoro-7-((4-(2-methyl-4-(methylcarbamoyl)phenyl)piperazin-1-yl)methyl)-3-methylpyrazolo[1,5-a]quinoxalin-4(5H)-one] |
| 23.6 nM | CNC(=O)c1ccc(N2CCN(Cc3ccc4c([nH]c(=O)c5c(C)cnn54)c3F)CC2)cn1 [Example 153, 6-fluoro-3-methyl-7-((4-(6-(methylcarbamoyl)pyridin-3-yl)piperazin-1-yl)methyl)pyrazolo[1,5-a]quinoxalin-4(5H)-one] |
| 25.5 nM | CNC(=O)c1ccc(C2CCN(Cc3ccc4c([nH]c(=O)c5c(C)cnn54)c3F)CC2)c(F)n1 [Example 124, 6-fluoro-7-((4-(2-fluoro-6-(methylcarbamoyl)pyridin-3-yl)piperidin-1-yl)methyl)-3-methylpyrazolo[1,5-a]quinoxalin-4(5H)-one] |
| 20.3 nM | CNC(=O)c1ccc(N2CCN(Cc3cc4[nH]c(=O)c5c(C)cnn5c4cc3F)CC2)c(C)n1 [Example 169, 8-fluoro-7-((4-(2-methyl-6-(methylcarbamoyl)pyridin-3-yl)piperazin-1-yl)methyl)-3-methylpyrazolo[1,5-a]quinoxalin-4(5H)-one] |
| 23.6 nM | CNC(=O)c1ccc(N2CCN(Cc3ccc4c([nH]c(=O)n5ccnc45)c3F)CC2)c(C)n1 [Example 50, 8-((4-(2-methyl-6-(methylcarbamoyl)pyridin-3-yl)piperazin-1-yl)methyl)-7-fluoroimidazo[1,2-c]quinazolin-5(6H)-one] |
| 2.13 nM | CNC(=O)c1ccc(N2CCN(Cc3ccc4c([nH]c(=O)c5c(Cl)cnn54)c3F)CC2)c(C)n1 [Example 59, 7-((4-(2-methyl-6-(methylcarbamoyl)pyridin-3-yl)piperazin-1-yl)methyl)-6-fluoro-3-chloro-pyrazolo[1,5-a]quinoxalin-4(5H)-one] |
| 15.4 nM | CNC(=O)c1ccc(N2CCN(Cc3ccc4c([nH]c(=O)c5c(F)cnn54)c3F)C[C@H]2C)c(F)n1 [Example 196, (R)-7-((4-(2-fluoro-6-(methylcarbamoyl)pyridin-3-yl)-3-methylpiperazin-1-yl)methyl)-3-6-difluoropyrazolo[1,5-a]quinoxalin-4(5H)-one] |
| > 100 nM | CNC(=O)c1ccc(N2CCN(Cc3ccc4c([nH]c(=O)c5c(C)cnn54)c3Cl)CC2)c(C)n1 [Example 175, 6-chloro-7-((4-(2-methyl-6-(methylcarbamoyl)pyridin-3-yl)piperazin-1-yl)methyl)-3-methylpyrazolo[1,5-a]quinoxalin-4(5H)-one] |
| > 100 nM | CNC(=O)c1ccc(N2CCN(Cc3ccc4c([nH]c(=O)c5c(C)cnn54)c3F)CC2)c(C2CC2)n1 [Example 160, 7-((4-(2-cyclopropyl-6-(methylcarbamoyl)pyridin-3-yl)piperazin-1-yl)methyl)-6-fluoro-3-methylpyrazolo[1,5-a]quinoxalin-4(5H)-one] |
| > 100 nM | CNC(=O)c1ccc(N2CCN(Cc3ccc4c([nH]c(=O)c5ocnc54)c3F)CC2)c(F)n1 [Example 95, 7-((4-(2-fluoro-6-(methylcarbamoyl)pyridin-3-yl)piperazin-1-yl)methyl)-6-fluorooxazolo[5,4-c]quinolin-4(5H)-one] |
| 12.3 nM | CNC(=O)c1ccc(N2CCN(Cc3ccc4c([nH]c(=O)n5nccc45)c3F)CC2)c(F)n1 [Example 73, 8-((4-(2-fluoro-6-(methylcarbamoyl)pyridin-3-yl)piperazin-1-yl)methyl)-7-fluoropyrazolo[1,5-c]quinazolin-5(6H)-one] |
| 12.9 nM | O=c1[nH]c2c(F)c(CN3CCN(c4ccc(-c5nnc[nH]5)nc4F)CC3)ccc2c2ccoc12 [Example 110, 7-((4-(2-fluoro-6-(4H-1,2,4-triazol-3-yl)pyridin-3-yl)piperazin-1-yl)methyl)-6-fluorofuro[2,3-c]quinolin-4(5H)-one] |
| 7.24 nM | CCNC(=O)c1ccc(N2CCN(Cc3ccc4c([nH]c(=O)c5c(C)cnn54)c3F)CC2)c(F)n1 [Example 125, 7-((4-(2-fluoro-6-(ethylcarbamoyl)pyridin-3-yl)piperazin-1-yl)methyl)-6-fluoro-3-methylpyrazolo[1,5-a]quinoxalin-4(5H)-one] |
| 5.22 nM | CNC(=O)c1ccc(N2CCN(Cc3ccc4c(c3)[nH]c(=O)c3cn[nH]c34)CC2)c(C)n1 [Example 7, 7-((4-(2-methyl-6-(methylcarbamoyl)pyridin-3-yl)piperazin-1-yl)methyl)-1,5-dihydro-4H-pyrazolo[4,3-c]quinolin-4-one] |
| 23.2 nM | CNC(=O)c1ccc(N2CCN(Cc3ccc4c([nH]c(=O)c5c(C)cnn54)c3C)CC2)c(Cl)n1 [Example 173, 7-((4-(2-chloro-6-(methylcarbamoyl)pyridin-3-yl)piperazin-1-yl)methyl)-3,6-dimethylpyrazolo[1,5-a]quinoxalin-4(5H)-one] |
| 98.2 nM | Cc1cnn2c1c(=O)[nH]c1c(F)c(CN3CCN(c4ccc(-c5ncc[nH]5)nc4)CC3)ccc12 [Example 158, 7-((4-(6-(1H-imidazol-2-yl)pyridin-3-yl)piperazin-1-yl)methyl)-6-fluoro-3-methylpyrazolo[1,5-a]quinoxalin-4(5H)-one] |

Same assay, conditions: proliferation of MDA-MB-436 cells, 7 days

| IC50 | Compound |
| --- | --- |
| 7.87 nM | CNC(=O)c1ccc(N2CCN(Cc3ccc4c([nH]c(=O)n5nccc45)c3F)CC2)c(C)n1 [Example 119, 8-((4-(2-methyl-6-(methylcarbamoyl)pyridin-3-yl)piperazin-1-yl)methyl)-7-fluoropyrazolo[1,5-c]quinazolin-5(6H)-one] |
| 5.27 nM | CNC(=O)c1ccc(N2CCN(Cc3ccc4c([nH]c(=O)c5c(F)cnn54)c3F)CC2)c(F)n1 [Example 188, 7-((4-(2-fluoro-6-(methylcarbamoyl)pyridin-3-yl)piperazin-1-yl)methyl)-3,6-difluoropyrazolo[1,5-a]quinoxalin-4(5H)-one] |
